Measured values as given in paper PMC9653339, “Revisiting the anticancer properties of phosphane(9-ribosylpurine-6-thiolato)gold(I) complexes and their 9H-purine precursors” (Journal of Biological Inorganic Chemistry, 2022).
“And” between values parts separate entries of the source, which are not always exact repeats. Equal entries are not always repeated.

Tests used:
[1] = system: HCT-116^wt colon carcinoma cells; test: MTT cell viability assay, HCT-116wt; type: cell-based, human; conditions: 72 h
Protocol: (§1) Cells were seeded in 96-well microtiter plates (Sarstedt) with a cell density of 0.05 × 10^6 cells per ml and 100 µL per well and incubated for 24 h. A dilution series of test compounds was added to the wells, ranging in twelve steps from 100 µM to 5 nM. As a control, equal amounts of DMSO were added. Treated cells were further incubated for 72 h. Then, 12.5 µL per well of MTT solution (0.05% in phosphate-buffered saline (PBS)) was added, followed by another 2 h of incubation. The plates were centrifuged, the medium was discarded and 25 µL per well of SDS solution in DMSO (10% SDS, 0.6% AcOH in DMSO) was added to dissolve the formazan. The plates were incubated for a further hour. Absorbances at 570 nm and 630 nm were measured using a plate reader (Tecan). Background absorbance (630 nm) was subtracted from the formazan signal (570 nm). The resulting absorbance was directly proportional to the amount of viable cells. The control was normalized to 100% viable cells and viability of cells treated with test compounds was calculated accordingly. IC50 values were calculated based on a sigmoidal fit model using GraphPad Prism. Means and SD were calculated from at least four independent experiments.

[2] = system: EA.hy926 endothelial hybrid cells; test: MTT cell viability assay, EA.hy926; type: cell-based, human
Protocol: as §1, with “All complexes stable in solution were investigated for their anti-proliferative effect on nine human cancer cell lines, using the MTT-based cell viability assay. Cells” for “Cells”

[3] = system: HT-29 colon carcinoma cells; test: MTT cell viability assay, HT-29; type: cell-based, human
Protocol: as §1, with “All complexes stable in solution were investigated for their anti-proliferative effect on nine human cancer cell lines, using the MTT-based cell viability assay. Cells” for “Cells”

[4] = system: human adult dermal fibroblasts HDFa; test: MTT cell viability assay, HDFa; type: cell-based; conditions: 72 h, non-malignant fibroblasts
Protocol: as §1, with “All complexes stable in solution were investigated for their anti-proliferative effect on nine human cancer cell lines, using the MTT-based cell viability assay. Cells” for “Cells”

518A2 melanoma cells [5] = test: MTT cell viability assay, 518A2; type: cell-based, human
Protocol: as §1, with “All complexes stable in solution were investigated for their anti-proliferative effect on nine human cancer cell lines, using the MTT-based cell viability assay. Cells” for “Cells”

U-87 glioblastoma cells = test: MTT cell viability assay, U-87; type: cell-based, human; conditions: 72 h
Protocol: as §1, with “All complexes stable in solution were investigated for their anti-proliferative effect on nine human cancer cell lines, using the MTT-based cell viability assay. Cells” for “Cells”

[6] = system: HCT-116^p53−/− (p53 knockout mutant) colon carcinoma cells; test: MTT cell viability assay, HCT-116 p53-/-; type: cell-based, human; conditions: 72 h
Protocol: as §1

518A2 melanoma cells [7] = test: Lactate dehydrogenase (LDH) cytotoxicity assay; type: cell-based, human; conditions: 518A2 cells, 10 µM, 24 h
Protocol: 518A2 melanoma cells were seeded in 96-well flat bottom microtiter plates (Sarstedt) with 100 µL per well and a cell density of 0.05 × 10^6 cells per mL. Wells containing medium alone were additionally set for background measurement. Cells were allowed to grow overnight followed by substance treatment with 11.1 µL of tenfold concentrated test compound dilutions and further incubated for 24 h. As a positive control, 10 µL per well of lysis solution (9% Triton-X 100 in Millipore H2O) was added and incubated for 45 min to maintain maximum LDH release, the same amount was added to maximum release background correction wells containing only medium. After centrifugation (4 °C, 150×g, 5 min), 50 µL of the supernatant of each well was transferred on a fresh microtiter plate followed by addition of 50 µL LDH assay buffer (223 mg of 2-p-iodophenyl-3-p-nitrophenyl-5-phenyltetrazolium chloride, 57 mg of N-methyl-phenazonium methyl sulfate, 575 mg of […], 3.2 g of lactic acid in 480 ml 200 mM Tris–Cl, pH 8.0) per well. The plate was incubated in the dark for 10–30 min at room temperature. Then 50 µL stop solution (1 M acetic acid) was added per well and the absorbance was measured at 490 nm. The mean value of background wells with medium alone was subtracted from the negative control and test wells. Additionally, the mean value of volume correction wells was subtracted from maximum LDH release wells. The percentage of LDH release was calculated, with the maximum LDH release set as 100% and the negative control as 0% release. Means and SD were calculated from at least three independent experiments.

EA.hy926 cells = test: Tube formation assay; type: cell-based, human; conditions: 5 µM (CA-4 0.01 µM)
Protocol: EA.hy926 cells were cultured overnight in endothelial medium (37 °C, 95% humidity, 5% CO2) instead of DMEM. In addition, Matrigel was thawed on ice in the refrigerator. Pipette tips and 96-well plates were stored at − 20 °C overnight. The next day, 30 µL of Matrigel was added to each well bubble-free and the well plate was incubated for approximately 45 min (37 °C, 95% humidity, 5% CO2). Subsequently, 100 µL of cell suspension was added to each well at a concentration of 0.4–0.5 × 10^6 cells/mL onto the Matrigel-treated wells and the substances were added in tenfold pre-dilution. This was followed by incubation for approximately 6 h, until tubes formed in the negative control with DMSO. At this point, documentation under the microscope took place.

518A2 melanoma cells [8] = test: Inhibition of wound healing (scratch migration assay); type: cell-based, human; conditions: 518A2 cells, IC50 concentrations, 0-24 h
Protocol: Cells of melanoma cell line 518A2 were seeded in a volume of 500 µL and at a concentration of 0.1 × 10^6 cells/mL in 24-well plates in triplicate. The plate was incubated (37 °C, 95% humidity, 5% CO2) for two days until a confluent monolayer was formed. A 10 µL pipette tip was used to create a wound in the cell lawn, the wound was rinsed with PBS and the medium was changed to a FBS-reduced one. Pictures were taken at first time point (0 h) right before the addition of substance at 100-fold pre-dilution. The plate was then incubated again in the incubator and photos were taken at several more time points (6, 12, and 24 h) [262626].

[9] = Homo sapiens, Colon carcinoma cell

Row | SMILES | IC50 [1, 9] [µM] | IC50 ([2]; Homo sapiens, EA.hy 926, 72 h) [µM] | IC50 ([3]; Homo sapiens, HT-29, 72 h) [µM] | IC50 ([4]; Homo sapiens, HDFa) [µM] | IC50 (518A2 melanoma cells [5]; Homo sapiens, 518A2, 72 h) [µM] | IC50 (U-87 glioblastoma cells; Homo sapiens) [µM] | IC50 [6, 9] [µM] | LDH release (necrosis) (518A2 melanoma cells [7]) | Inhibition of tube formation (EA.hy926 cells) | IC50 ([2]; 72 h) [µM] | IC50 ([3]; 72 h) [µM] | IC50 (U-87 glioblastoma cells) [µM] | IC50 [1] [µM] | Effect on cell migration (scratch closure) (518A2 melanoma cells [8]) | IC50 [4] [µM] | IC50 (518A2 melanoma cells [5]; 72 h) | IC50 [6] [µM]
1 | Sc1ncnc2nc[nH]c12 [6-MP, 6-Mercaptopurine, reference compound] | 5.3 ± 0.28 | 0.92 ± 0.04 | 1.4 ± 0.06 | > 50 | 11 ± 1.1 | 1.4 ± 0.13 | 0.58 ± 0.05 | no enzyme could be detected |  |  |  |  |  |  |  |  | 
2 | Nc1nc2nc[nH]c2c(=S)[nH]1 [6-TG, 6-thioguanine, reference compound] |  | 0.25 ± 0.02 | 1.2 ± 0.08 | > 50 | 5.2 ± 0.45 | 1.7 ± 0.08 |  | no enzyme could be detected | stronger such effect when compared to 6-MP |  |  |  |  |  |  |  | 
3 | CC(=O)OC[C@H]1O[C@@H]([S-])[C@H](OC(C)=O)[C@@H](OC(C)=O)[C@@H]1OC(C)=O.CCP(CC)CC.[Au+] [Auranofin, auranofin] |  |  |  |  |  |  |  | no enzyme could be detected | inhibitory effects | 0.82 ± 0.04 | 2 ± 0.18 | 2.4 ± 0.24 |  |  |  |  | 
4 | OC[C@H]1O[C@@H](n2cnc3c([S][Au][PH](c4ccccc4)(c4ccccc4)c4ccccc4)ncnc32)[C@H](O)[C@@H]1O [Complex 5, (1,7-Dihydro-6H-purine-9-β-D-ribofuranosyl-6-thiolato) (triphenylphosphane) gold(I)] |  |  |  |  |  |  |  | no enzyme could be detected | inhibitory effect, comparable in strength to that of 6-TG | 0.34 ± 0.03 | 1.2 ± 0.09 | 1.7 ± 0.15 | 1.7 ± 0.2 | retarded the closure of the scratch | 36 ± 1.7 | 2.6 ± 0.25 µM | 0.3 ± 0.07
5 | Nc1nc([S][Au][PH](c2ccccc2)(c2ccccc2)c2ccccc2)c2ncn([C@@H]3O[C@H](CO)[C@@H](O)[C@H]3O)c2n1 [Complex 6, (2-Amino-1,7-dihydro-6H-purine-9-β-D-ribofuranosyl-6-thiolato) (triphenylphosphane) gold(I)] |  |  |  |  |  |  |  | no enzyme could be detected |  | 3.8 ± 0.13 | 3.1 ± 0.19 | 1.2 ± 0.12 | 5.5 ± 0.2 | even accelerated it | 36 ± 3 | ~3.5 µM and 3.5 µM | 1.4 ± 0.3
